Patent publication US20050148495A1, “Methods and materials including for treating acne” (priority 2003, published 2005)
Values after ≈ are worked out from the molar mass of the structure shown. Like-named read-outs stand apart in the source and are kept apart here. Non-standard residues stand in square brackets, D forms with d. Residues, ends and D or L forms follow the SMILES beside them. d1Nal = N[C@H](Cc1cccc2ccccc12)C(=O)O

Experiments:
Candida = type: cell-based
Description: Control tubes containing only water or formulation buffer were prepared for each isolate. Initial growth controls were determined by removing 10 μL from the water control tube and diluting it by 100 fold. From this dilution, 10 μL was used for inoculation and for spreading over the surface onto Laked Blood Agar (LBA) (Anaerobe Systems, Morgan Hill, Calif.) plates. The tubes and plates were incubated in an anaerobic atmosphere at 37° C. for 48 h. […] MBC50 and 90 values represent where 50 and 90%, respectively, of the tested strain's MBC values are equal to or less than the indicated concentration.

[1] = test system: E. coli 0111 :B4 lipopolysaccharide challenge in CD-1 mice; test: Murine model of endotoxemia (survival); type: in vivo; details: 0.65 mg/kg intravenously; 25 mg/kg LPS; seven days
Description: This example addresses studies relating to additional activities of XMP.629, including its known endotoxin-related activities. […] For these studies, groups of 15 male CD-1 mice were challenged with 25 mg/kg E. coli 0111 :B4 lipopolysaccharide via tail vein injection. Immediately following endotoxin challenge, mice were treated intravenously with XMP.629 at 0.07, 0.2, 0.65 mg/kg or saline. Animals were observed twice daily and mortality was recorded for seven days.

SMILES: CC(C)C[C@@H](NC(=O)[C@H](N)CCCCN)C(=O)N[C@H](Cc1ccccc1)C(=O)N[C@H](CCCNC(=N)N)C(=O)N[C@H](Cc1cccc2ccccc12)C(=O)N[C@H](CCC(N)=O)C(=O)N[C@H](C)C(=O)N[C@H](CCCCN)C(=O)N[C@H](Cc1cccc2ccccc12)C(N)=O [XMP.629, NH2-lys-leu-phe-arg-(3-(1-naphthyl)-ala)-gln-ala-lys-(3-(1-naphthyl)-ala)-CONH2] (H-[dK][dL][dF][dR][d1Nal][dQ][dA][dK][d1Nal]-NH2)
- MIC90, XMP.629 data reported as MBC values (Candida): 1 µg/mL (≈ 0.779 µM)
- MIC90, XMP.629 data reported as MBC values (Candida; in FB (formulation buffer)): 0.5 µg/mL (≈ 0.39 µM)
- survival in endotoxin-challenged mice [1]: complete protection
